Data from PMC6302903, “Protein and Chemical Determinants of BL-1249 Action and Selectivity for K2P Channels” (ACS Chemical Neuroscience, 2018).

Tests used:
K2P2.1(TREK-1) = molecular target: T1, K2P2.1(TREK-1) (Mus musculus, UniProt P97438); experiment: TEVC of K2P2.1(TREK-1) in Xenopus oocytes; assay type: cell-based; parameters: expressed in transfected cells; host or cells: Xenopus laevis oocytes injected with mRNA made from pGEMHE/pMO; settings: for effect on K2P2.1(TREK-1) current (in words): dose-response
T1 sequence (P97438 1-411 isoform P97438-2): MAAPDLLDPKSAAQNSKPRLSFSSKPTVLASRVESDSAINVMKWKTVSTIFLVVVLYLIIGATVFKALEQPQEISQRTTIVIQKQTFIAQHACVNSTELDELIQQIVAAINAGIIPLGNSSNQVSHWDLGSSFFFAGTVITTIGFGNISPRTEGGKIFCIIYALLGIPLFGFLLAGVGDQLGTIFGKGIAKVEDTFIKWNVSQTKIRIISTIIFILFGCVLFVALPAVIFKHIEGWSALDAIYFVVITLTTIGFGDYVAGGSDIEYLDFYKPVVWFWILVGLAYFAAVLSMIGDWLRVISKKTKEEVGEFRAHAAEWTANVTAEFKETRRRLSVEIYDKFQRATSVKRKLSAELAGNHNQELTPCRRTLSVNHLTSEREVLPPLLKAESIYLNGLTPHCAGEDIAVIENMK
Description: (§1) Constructs for murine K2P channels, including K2P2.1(TREK-1) (Gene ID 16526), K2P10.1(TREK-2) (Gene ID 72258), K2P4.1(TRAAK) (Gene ID 16528), K2P5.1(TASK-2) (Gene ID 16529), K2P3.1(TASK-1) (Gene ID 16527), K2P9.1(TASK-3) (Gene ID 223604), and K2P18.1(TRESK) (Gene ID 332396) in pGEMHE/pMO, were used for Xenopus oocyte experiments as previously described.[10],[26] Murine K2P2.1(TREK-1) (Gene ID 16526) was expressed in HEK-293 cells using a pIRES-EGFP construct as previously described.[26] Murine K2P13.1(THIK-1) (Gene ID 217826) and K2P1.1(TWIK-1) (Gene ID 16525) were cloned into pGEMHE/pMO for use in Xenopus oocytes. Chimeras were designed using EMBOSS Needle pairwise sequence alignment tool[58] to match homologous helices in K2P2.1(TREK-1) and K2P4.1(TRAAK) and were assembled using the Gibson assembly method.[59] Chimera boundaries are Thr152 (TREK-1/AAK M2-C), Trp199 (TREK-1/AAK M3-C), Y272 (TREK-1/AAK M4-C), Thr114 (TRAAK/EK-1 M2-C), Trp161 (TRAAK/EK-1 M3-C), and Tyr234 K2P4.1(TRAAK). All sequences were verified using DNA sequencing.
(§2) Xenopus laevis oocytes were harvested in accordance with UCSF IACUC protocol AN129690 and digested in calcium-free ND-96 (96 mM NaCl, 2 mM KCl, 3.8 mM MgCl2) immediately following harvest, as previously described.[6],[10] Digested oocytes were maintained in standard ND96 (96 mM NaCl, 2 mM KCl, 1.8 mM CaCl2, 2 mM MgCl2) with antibiotics (100 units mL^–1 penicillin, 100 μg mL^–1 streptomycin, 50 μg mL^–1 gentimycin). Defolliculated stage V–VI oocytes were injected with 0.2–6.0 ng of mRNA in 50 nL, and currents were recorded 24–48 h after injection. mRNA was synthesized from plasmid DNA using mMessage mMachine Kit (T7 promoter, Ambion, Life Technologies) and purified using RNEasy Kit (Qiagen). Injected oocytes were impaled with two standard microelectrodes (0.2–1.0 MΩ) filled with 3 M KCl and subjected to constant perfusion of standard ND96 during recording. Currents were amplified using the GeneClamp 500B (MDS Analytical Technologies) amplifier controlled by the pClamp software (Molecular Devices). Data were digitized at 1 kHz using Digidata 1332A (MDS Analytical Technologies). For all experiments with small molecules, basal currents were evoked using 1 s long ramps from −150 to +50 mV under constant perfusion of ND96. Once stabilized basal currents were recorded, compounds were perfused at various concentrations in standard ND96 and currents were allowed to increase to stabilization before recording final current. Fold activation upon compound application is expressed as I/I0 (0 mV), derived from the current at 0 mV in the presence of compound divided by the basal current at 0 mV in standard ND96 without compound. Data were analyzed and plotted using Graphpad Prism Version 5 (GraphPad Software, San Diego California USA, www.graphpad.com). […] In the case of BL-1249-acid EC50 estimation, upper bound of I/I0 was set to 20 to account for the strong stimulation of BL-1249-acid.

K2P4.1(TRAAK) = molecular target: T2, K2P4.1(TRAAK) (Mus musculus, UniProt O88454); experiment: TEVC of K2P4.1(TRAAK) in Xenopus oocytes; assay type: cell-based; settings: I/I0 at 0 mV
T2 construct: expressed in transfected cells; host or cells: Xenopus laevis oocytes injected with mRNA made from pGEMHE/pMO
T2 sequence (O88454 1-398): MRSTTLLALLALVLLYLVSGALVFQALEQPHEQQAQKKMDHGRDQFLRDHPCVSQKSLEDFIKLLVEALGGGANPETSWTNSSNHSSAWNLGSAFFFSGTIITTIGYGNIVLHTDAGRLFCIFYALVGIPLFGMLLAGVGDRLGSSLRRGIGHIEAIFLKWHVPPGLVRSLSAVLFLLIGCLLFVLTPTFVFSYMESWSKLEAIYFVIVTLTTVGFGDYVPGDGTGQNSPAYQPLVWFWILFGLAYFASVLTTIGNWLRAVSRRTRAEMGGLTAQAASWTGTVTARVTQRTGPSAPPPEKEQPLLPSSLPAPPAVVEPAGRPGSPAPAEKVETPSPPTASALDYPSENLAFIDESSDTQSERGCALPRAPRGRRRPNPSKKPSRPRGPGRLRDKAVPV
Description: as §1, §2

TREK-1/AAK M2-C = TREK-1/AAK M2-C (Mus musculus, UniProt O88454+P97438); experiment: TEVC of chimera TREK-1/AAK M2-C; assay type: cell-based; settings: Xenopus oocytes
TREK-1/AAK M2-C, sequence (P97438 16-167, one chain of several): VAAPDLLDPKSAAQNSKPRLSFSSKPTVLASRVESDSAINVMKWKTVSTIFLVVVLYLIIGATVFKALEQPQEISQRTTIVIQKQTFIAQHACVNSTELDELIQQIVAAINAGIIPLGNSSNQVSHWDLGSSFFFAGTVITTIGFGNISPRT

TRAAK/EK-1 M3-C = molecular target: T3, TRAAK/EK-1 M3-C (Mus musculus, UniProt O88454+P97438, A173T/A231F/D223G/E202D/F190V/F242V/G166T/G224S/G226I/H162N/I179F/I208V/K200A/L167K/L171I/L175I/L177I/L182V/L186A/L235V/M195I/N228Y/N256D/P164S/P165Q/P221A/P230D/Q227E/Q233K/S170I/S193K/S197G/S229L/S249A/T187L/T189A/T225D/T252S/T253M/V168I/V174I/V191I/V209I/V214I/Y194H); experiment: TEVC of chimera TRAAK/EK-1 M3-C; assay type: cell-based; settings: Xenopus oocytes
T3 construct: Trp161 (TRAAK/EK-1 M3-C); expressed in transfected cells; host or cells: Xenopus laevis oocytes, mRNA injected; chimera built by Gibson assembly
T3 sequence (O88454+P97438 fused with the stated changes): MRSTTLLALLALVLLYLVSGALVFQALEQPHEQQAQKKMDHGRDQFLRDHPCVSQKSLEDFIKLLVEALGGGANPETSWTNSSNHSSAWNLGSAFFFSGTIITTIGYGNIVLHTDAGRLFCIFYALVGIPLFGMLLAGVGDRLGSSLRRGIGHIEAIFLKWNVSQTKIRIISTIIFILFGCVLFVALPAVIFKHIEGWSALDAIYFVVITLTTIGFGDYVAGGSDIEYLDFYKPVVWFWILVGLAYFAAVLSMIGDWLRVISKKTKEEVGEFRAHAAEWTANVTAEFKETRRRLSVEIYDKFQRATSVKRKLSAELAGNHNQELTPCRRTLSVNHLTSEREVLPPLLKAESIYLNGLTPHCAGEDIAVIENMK

TREK-1/AAK M3-C = molecular target: T4, TREK-1/AAK M3-C (Mus musculus, UniProt O88454+P97438); experiment: TEVC of chimera TREK-1/AAK M3-C; assay type: cell-based; settings: Xenopus oocytes
T4 construct: Trp199 (TREK-1/AAK M3-C); expressed in transfected cells; host or cells: Xenopus laevis oocytes, mRNA injected; chimera built by Gibson assembly
T4 sequence (P97438+O88454 with tags, fused parts or gaps P97438:N200H/P97438:S202P/P97438:Q203P/P97438:T204G/P97438:K205L/P97438:I206V/P97438:I208S/P97438:I209L/P97438:T211A/P97438:I212V/P97438:I213L/P97438:I215L/P97438:F217I/P97438:V220L/P97438:A224L/P97438:L225T/P97438:A227T/P97438:V228F/P97438:I229V/P97438:K231S/P97438:H232Y/P97438:I233M/P97438:G235S/P97438:A238K/P97438:D240E/P97438:V246I/P97438:I247V/P97438:I252V/P97438:A259P/P97438:G261D/P97438:S262G/P97438:D263T/P97438:I264G/P97438:E265Q/P97438:Y266N/P97438:L267S/P97438:D268P/P97438:F269A/P97438:K271Q/P97438:V273L/P97438:V280F/P97438:A287S/P97438:S290T/P97438:M291T/P97438:D294N): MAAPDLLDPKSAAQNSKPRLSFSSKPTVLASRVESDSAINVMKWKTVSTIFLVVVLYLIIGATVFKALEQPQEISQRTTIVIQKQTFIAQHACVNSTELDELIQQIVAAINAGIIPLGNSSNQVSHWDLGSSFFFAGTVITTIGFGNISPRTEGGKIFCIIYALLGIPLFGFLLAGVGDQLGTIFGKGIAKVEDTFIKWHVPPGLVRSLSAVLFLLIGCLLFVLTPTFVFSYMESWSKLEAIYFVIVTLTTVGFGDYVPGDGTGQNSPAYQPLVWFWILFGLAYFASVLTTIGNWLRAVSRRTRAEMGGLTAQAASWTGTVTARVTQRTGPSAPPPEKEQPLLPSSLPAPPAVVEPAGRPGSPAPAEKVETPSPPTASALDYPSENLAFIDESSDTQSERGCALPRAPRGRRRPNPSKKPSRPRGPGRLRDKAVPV

TRAAK/EK-1 M4-C = molecular target: T5, TRAAK/EK-1 M4-C (Mus musculus, UniProt O88454+P97438, F242V/L235V/N256D/S249A/T252S/T253M); experiment: TEVC of chimera TRAAK/EK-1 M4-C; assay type: cell-based; settings: Xenopus oocytes
T5 construct: and Tyr234 K2P4.1(TRAAK); expressed in transfected cells; host or cells: Xenopus laevis oocytes, mRNA injected; chimera built by Gibson assembly
T5 sequence (O88454+P97438 fused with the stated changes): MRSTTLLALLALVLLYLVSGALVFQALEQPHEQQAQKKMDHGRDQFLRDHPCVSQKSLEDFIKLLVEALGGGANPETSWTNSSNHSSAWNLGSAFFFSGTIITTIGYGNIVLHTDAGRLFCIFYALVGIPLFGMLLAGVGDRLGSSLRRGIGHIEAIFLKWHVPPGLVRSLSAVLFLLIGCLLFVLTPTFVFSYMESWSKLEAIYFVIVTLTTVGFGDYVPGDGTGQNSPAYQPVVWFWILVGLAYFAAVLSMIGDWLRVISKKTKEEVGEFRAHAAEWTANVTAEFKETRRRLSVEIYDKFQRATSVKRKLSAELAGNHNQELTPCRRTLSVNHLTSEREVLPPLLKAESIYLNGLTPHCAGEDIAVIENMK

TRAAK/EK-1 M2-C = molecular target: T6, TRAAK/EK-1 M2-C (Mus musculus, UniProt O88454+P97438, A151S/D143N/F160Y/H141A/P165L/Q138H/R166H/S147A/S164V/V139S/V154I); experiment: TEVC of chimera TRAAK/EK-1 M2-C; assay type: cell-based; settings: Xenopus oocytes
T6 construct: Thr114 (TRAAK/EK-1 M2-C); expressed in transfected cells; host or cells: Xenopus laevis oocytes, mRNA injected; chimera built by Gibson assembly
T6 sequence (O88454+P97438 fused with the stated changes): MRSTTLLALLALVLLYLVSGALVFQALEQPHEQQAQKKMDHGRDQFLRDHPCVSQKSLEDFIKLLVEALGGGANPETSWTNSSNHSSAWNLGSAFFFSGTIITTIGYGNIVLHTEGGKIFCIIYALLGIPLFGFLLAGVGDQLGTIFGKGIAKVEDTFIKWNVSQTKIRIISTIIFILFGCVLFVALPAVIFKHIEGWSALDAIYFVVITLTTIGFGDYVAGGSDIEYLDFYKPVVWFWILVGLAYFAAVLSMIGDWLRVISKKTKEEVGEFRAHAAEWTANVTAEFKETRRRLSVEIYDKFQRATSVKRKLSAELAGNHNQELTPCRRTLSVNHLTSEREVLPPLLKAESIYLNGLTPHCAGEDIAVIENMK

TREK-1/AAK M4-C = molecular target: T7, TREK-1/AAK M4-C (Mus musculus, UniProt O88454+P97438); experiment: TEVC of chimera TREK-1/AAK M4-C; assay type: cell-based; settings: Xenopus oocytes
T7 construct: Y272 (TREK-1/AAK M4-C); expressed in transfected cells; host or cells: Xenopus laevis oocytes, mRNA injected; chimera built by Gibson assembly
T7 sequence (P97438+O88454 with tags, fused parts or gaps P97438:V273L/P97438:V280F/P97438:A287S/P97438:S290T/P97438:M291T/P97438:D294N): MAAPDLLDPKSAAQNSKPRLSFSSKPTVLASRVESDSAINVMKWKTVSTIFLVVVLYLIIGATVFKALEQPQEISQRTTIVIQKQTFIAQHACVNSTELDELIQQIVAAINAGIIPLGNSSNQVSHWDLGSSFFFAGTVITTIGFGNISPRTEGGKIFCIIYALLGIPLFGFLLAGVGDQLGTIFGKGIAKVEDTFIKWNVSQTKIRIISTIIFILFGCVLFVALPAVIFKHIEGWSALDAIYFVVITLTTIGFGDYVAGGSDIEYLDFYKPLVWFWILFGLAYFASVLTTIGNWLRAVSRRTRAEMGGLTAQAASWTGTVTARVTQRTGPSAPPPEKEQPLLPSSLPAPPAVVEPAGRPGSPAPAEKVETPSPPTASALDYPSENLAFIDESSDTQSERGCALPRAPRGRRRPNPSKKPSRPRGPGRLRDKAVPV

K2P18.1(TRESK) = test system: K2P18.1(TRESK); parameters: method as in PMID 27641472; settings: cited from earlier work
[1] = extracellular application, fold activation I/I0 at 0 mV

Row | SMILES | EC50 (K2P2.1(TREK-1); [1]) | EC50 (K2P4.1(TRAAK)) | effect on K2P2.1(TREK-1) current (in words) (K2P2.1(TREK-1)) | also measured
1 | CC1(C)c2cc(Cl)ccc2N(CCc2nn[nH]n2)c2ccc(Cl)cc21 [ML67-33] | – | – | – | EC50 (TREK-1/AAK M2-C): 42 ± 3 µM; EC50 (TRAAK/EK-1 M3-C): 44 ± 14 µM; EC50 (TREK-1/AAK M3-C): 49 ± 22 µM; EC50 (TRAAK/EK-1 M4-C): 31 ± 3 µM; EC50 (TRAAK/EK-1 M2-C): 33 ± 1 µM; EC50 (TREK-1/AAK M4-C): 42 ± 3 µM
2 | O=C(O)c1ccccc1Nc1cccc2c1CCCC2 [BL-1249-acid] | – | > 200 µM | stronger stimulatory effect on the current than either BL-1249 or BL-1249-amide | loss of potency on K2P2.1(TREK-1) relative to BL-1249-amide (K2P2.1(TREK-1)): ~2 fold; EC50 (K2P2.1(TREK-1); EC50 estimated imposing an upper boundary of 20 (fold activation, I/I0)): 44 ± 10 µM; functional effect on K2P18.1(TRESK) (K2P18.1(TRESK)): inhibitor
3 | c1ccc(Nc2ccccc2-c2nnn[nH]2)cc1 [BL-1249-Ph] | > 200 µM | > 200 µM | only a small amount of stimulatory effect | –

The next lines start with results.

Row | EC50 (K2P2.1(TREK-1); [1]) | EC50 (K2P4.1(TRAAK)) | SMILES | effect on K2P2.1(TREK-1) current (in words) (K2P2.1(TREK-1)) | also measured
4 | 22 ± 8 µM | > 200 µM | NC(=O)c1ccccc1Nc1cccc2c1CCCC2 [BL-1249-amide] | – | –
5 | 34 ± 6 µM | 42 ± 9 µM | c1ccc2c(c1)Nc1c(-c3nnn[nH]3)cccc1C21CCCCC1 [BL-1249-tricycle] | inhibition between 0.1 and 10 μM followed by activation at higher concentrations | –
